Results: PubChem BioAssay AID1259407 (Chemical Carcinogenesis Research Information System (CCRIS), 2018)
The source made the active and inactive calls. How the calls were made is not given here.

System: CCRIS mutagenicity, Ames/micronucleus/aberration tests
Assay: CCRIS mutagenicity studies
[1] = Test System: AMES SALMONELLA TYPHIMURIUM, Strain/Indicator: TA98, Metabolic Activation: NONE, Method: STANDARD PLATE
[2] = Test System: AMES SALMONELLA TYPHIMURIUM, Strain/Indicator: TA100, Metabolic Activation: NONE, Method: STANDARD PLATE
[3] = Test System: AMES SALMONELLA TYPHIMURIUM, Strain/Indicator: TA1535, Metabolic Activation: NONE, Method: STANDARD PLATE
[4] = Test System: AMES SALMONELLA TYPHIMURIUM, Strain/Indicator: TA1537, Metabolic Activation: NONE, Method: STANDARD PLATE
[5] = End Point: IN VIVO MICRONUCLEUS, Test System: BONE MARROW POLYCHROMATIC ERYTHROCYTES, Species: MOUSE, Strain/Sex: DDY/MALE, Route: IP
[6] = Test System: AMES SALMONELLA TYPHIMURIUM, Strain/Indicator: TA98, Metabolic Activation: NONE, Method: PREINCUBATION

Measured: mutagenic call

C=CC1=C(C)C(=O)N/C1=C\c1[nH]c(Cc2[nH]c(/C=C3\NC(=O)C(C)=C3C=C)c(C)c2CCC(=O)NCCS(=O)(=O)O)c(CCC(=O)NCCS(=O)(=O)O)c1C
inactive: Test System: Ames Salmonella typhimurium, Strain/Indicator: TA98, Metabolic Activation: Liver, S-9, Method: Preincubation inactive; negative | Test System: Ames Salmonella typhimurium, Strain/Indicator: TA98, Metabolic Activation: None, Method: Preincubation inactive; negative | Test System: Ames Salmonella typhimurium, Strain/Indicator: TA100, Metabolic Activation: Liver, S-9, Method: Preincubation inactive; negative | Test System: Ames Salmonella typhimurium, Strain/Indicator: TA100, Metabolic Activation: None, Method: Preincubation inactive; negative | Test System: Ames Salmonella typhimurium, Strain/Indicator: TA102, Metabolic Activation: Liver, S-9, Method: Preincubation inactive; negative | Test System: Ames Salmonella typhimurium, Strain/Indicator: TA102, Metabolic Activation: None, Method: Preincubation inactive; negative

ClCCNCCCNc1c2ccccc2nc2c1ccc1cccnc12
active: [1] active; positive | [2] active; positive | Test System: AMES SALMONELLA TYPHIMURIUM, Strain/Indicator: TA1536, Metabolic Activation: NONE, Method: STANDARD PLATE active; positive | [4] active; positive | Test System: AMES SALMONELLA TYPHIMURIUM, Strain/Indicator: TA1538, Metabolic Activation: NONE, Method: STANDARD PLATE active; positive
inactive: [3] inactive; negative

CC[C@@H](C)[C@@H](N)C(=O)OC
inactive: [5] inactive; negative

O=[N+]([O-])O.O=[N+]([O-])O.[O]=[U]=[O]
inactive: End Point: In vitro micronucleus, Test System: Rat kidney (NRK-52E) cells, Metabolic Activation: None inactive; negative; depleted uranium tested

[Cl][Ga]([Cl])[Cl]
inactive: [6] inactive; negative | Test System: AMES SALMONELLA TYPHIMURIUM, Strain/Indicator: TA98, Metabolic Activation: RAT, LIVER, S-9 (10%), Method: PREINCUBATION inactive; negative | Test System: AMES SALMONELLA TYPHIMURIUM, Strain/Indicator: TA100, Metabolic Activation: NONE, Method: PREINCUBATION inactive; negative | Test System: AMES SALMONELLA TYPHIMURIUM, Strain/Indicator: TA100, Metabolic Activation: RAT, LIVER, S-9 (10%), Method: PREINCUBATION inactive; negative

C[C@H](CCC(=O)O)[C@H]1CC[C@H]2[C@@H]3CC[C@@H]4CC(=O)CC[C@]4(C)[C@H]3C[C@H](O)[C@]12C
inactive: Test System: AMES SALMONELLA TYPHIMURIUM, Strain/Indicator: TA98, Metabolic Activation: NONE, Method: FLUCTUATION TEST inactive; negative | [6] inactive; negative | Test System: AMES SALMONELLA TYPHIMURIUM, Strain/Indicator: TA98, Metabolic Activation: RAT, LIVER, S-9, PCB, Method: PREINCUBATION inactive; negative | Test System: AMES SALMONELLA TYPHIMURIUM, Strain/Indicator: TA100, Metabolic Activation: NONE, Method: FLUCTUATION TEST inactive; negative

Cc1ccc(N=Nc2c(O)ccc3ccccc23)cc1C
inactive: [1] inactive; negative | Test System: AMES SALMONELLA TYPHIMURIUM, Strain/Indicator: TA98, Metabolic Activation: RAT, LIVER, S-9, Method: STANDARD PLATE inactive; negative | [2] inactive; negative | Test System: AMES SALMONELLA TYPHIMURIUM, Strain/Indicator: TA100, Metabolic Activation: RAT, LIVER, S-9, Method: STANDARD PLATE inactive; negative

O=[N+]([O-])CBr
active: Test System: Ames Salmonella typhimurium, Strain/Indicator: TA100, Metabolic Activation: None, Method: Standard plate active; positive | Test System: Ames Salmonella typhimurium, Strain/Indicator: TA100, Metabolic Activation: Rat, Liver, S-9, Aroclor, Method: Standard plate active; positive
inactive: End Point: In vitro micronucleus, Test System: Human lymphoblastoid TK6 cells, Metabolic Activation: None inactive; negative | End Point: In vitro micronucleus, Test System: Human peripheral blood lymphocytes, Metabolic Activation: None inactive; negative | Test System: Ames Salmonella typhimurium, Strain/Indicator: RSJ100, Metabolic Activation: None, Method: Standard plate inactive; negative | Test System: Ames Salmonella typhimurium, Strain/Indicator: RSJ100, Metabolic Activation: Rat, Liver, S-9, Aroclor, Method: Standard plate inactive; negative | Test System: Ames Salmonella typhimurium, Strain/Indicator: TA98, Metabolic Activation: None, Method: Standard plate inactive; negative | Test System: Ames Salmonella typhimurium, Strain/Indicator: TA98, Metabolic Activation: Rat, Liver, S-9, Aroclor, Method: Standard plate inactive; negative | Test System: Ames Salmonella typhimurium, Strain/Indicator: TA104, Metabolic Activation: None, Method: Standard plate inactive; negative | Test System: Ames Salmonella typhimurium, Strain/Indicator: TPT100, Metabolic Activation: None, Method: Standard plate inactive; negative

Oc1ccc2c(c1)sc1ccccc12
active: Test System: CHINESE HAMSTER OVARY, Strain/Indicator: CHO-K1-BH4 (HGPRT)/6-THIOGUANINE, Metabolic Activation: RAT, LIVER, S-9, AROCLOR (4%) active; positive

O=C(NC(=S)NNC(=O)c1cc(O)ccc1O)c1ccccc1
active: Test System: AMES SALMONELLA TYPHIMURIUM, Strain/Indicator: TA1530, Metabolic Activation: NONE, Method: STANDARD PLATE active; positive

OC(Nc1snc2ccccc12)C(Cl)(Cl)Cl (configuration not stated)
inactive: [1] inactive; negative | Test System: AMES SALMONELLA TYPHIMURIUM, Strain/Indicator: TA98, Metabolic Activation: S-9, Method: STANDARD PLATE inactive; negative | [2] inactive; negative | Test System: AMES SALMONELLA TYPHIMURIUM, Strain/Indicator: TA100, Metabolic Activation: S-9, Method: STANDARD PLATE inactive; negative | [3] inactive; negative | Test System: AMES SALMONELLA TYPHIMURIUM, Strain/Indicator: TA1535, Metabolic Activation: S-9, Method: STANDARD PLATE inactive; negative | [4] inactive; negative | Test System: AMES SALMONELLA TYPHIMURIUM, Strain/Indicator: TA1537, Metabolic Activation: S-9, Method: STANDARD PLATE inactive; negative

Cn1c(N)nc2nc3ccccc3cc21
active: Test System: AMES SALMONELLA TYPHIMURIUM, Strain/Indicator: TA98, Metabolic Activation: RAT, LIVER, S-9, AROCLOR 1254A, Method: STANDARD PLATE active; positive | Test System: AMES SALMONELLA TYPHIMURIUM, Strain/Indicator: YG1024, Metabolic Activation: RAT, LIVER, S-9, AROCLOR 1254A, Method: STANDARD PLATE active; positive

O=C(O)C1CCCN1 (configuration not stated)
active: Test System: AMES SALMONELLA TYPHIMURIUM, Strain/Indicator: TA98, Metabolic Activation: RAT LIVER S-9, CHLOROPHENE, Method: STANDARD PLATE (COMPOUND HEATED AT 250 DEGREES CELSIUS FOR 20 MIN) active; positive

Nc1ccc2c(c1)-c1cccc3cccc-2c13
active: Test System: AMES SALMONELLA TYPHIMURIUM, Strain/Indicator: TA98, Metabolic Activation: RAT, LIVER, S-9, AROCLOR 1254 (2 OR 4%), Method: STANDARD PLATE active; positive | Test System: AMES SALMONELLA TYPHIMURIUM, Strain/Indicator: TA100, Metabolic Activation: RAT, LIVER, S-9, AROCLOR 1254 (2%), Method: STANDARD PLATE active; positive | Test System: AMES SALMONELLA TYPHIMURIUM, Strain/Indicator: TA1537, Metabolic Activation: RAT, LIVER, S-9, AROCLOR 1254 (2%), Method: STANDARD PLATE active; positive
inactive: Test System: AMES SALMONELLA TYPHIMURIUM, Strain/Indicator: TA1535, Metabolic Activation: RAT, LIVER, S-9, AROCLOR 1254 (2%), Method: STANDARD PLATE inactive; negative

Cc1occc(=O)c1O
active: [5] active; positive
inactive: Test System: AMES SALMONELLA TYPHIMURIUM, Strain/Indicator: TA92, Metabolic Activation: NONE, Method: STANDARD PLATE inactive; negative | Test System: AMES SALMONELLA TYPHIMURIUM, Strain/Indicator: TA97, Metabolic Activation: NONE, Method: PREINCUBATION inactive; negative | Test System: AMES SALMONELLA TYPHIMURIUM, Strain/Indicator: TA97, Metabolic Activation: RAT, LIVER, S-9, AROCLOR 1254, Method: PREINCUBATION inactive; negative | [1] inactive; negative | [2] inactive; negative | Test System: AMES SALMONELLA TYPHIMURIUM, Strain/Indicator: TA102, Metabolic Activation: NONE, Method: PREINCUBATION inactive; negative | Test System: AMES SALMONELLA TYPHIMURIUM, Strain/Indicator: TA102, Metabolic Activation: RAT, LIVER, S-9, AROCLOR 1254, Method: PREINCUBATION inactive; negative | Test System: AMES SALMONELLA TYPHIMURIUM, Strain/Indicator: TA104, Metabolic Activation: NONE, Method: STANDARD PLATE inactive; negative
